Assay results from PubChem BioAssay (NCI).
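Five compound concentrations were applied to cells in 96-well plates for 48 hours; endpoints were derived by simple linear interpolation of the resulting dose-response curve. At the GI50, growth is halved. Definition used: TGI = concentration required for complete inhibition of growth.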

What was measured:
Test in all cases: growth of human tumour cells (NCI), 48 h
BT-549 breast = system: BT-549 breast
HCT-116 colon = system: HCT-116 colon
NCI-H226 lung = system: NCI-H226 lung
NCI/ADR-RES ovarian = system: NCI/ADR-RES ovarian
RXF 393 renal = system: RXF 393 renal
MDA-MB-435 = system: MDA-MB-435
SF-268 CNS = system: SF-268 CNS
SN12C renal = system: SN12C renal
KM12 colon = system: KM12 colon
SW-620 colon = system: SW-620 colon
NCI-H23 lung = system: NCI-H23 lung
OVCAR-8 ovarian = system: OVCAR-8 ovarian
A549 NSCLC = system: A549 NSCLC
HL-60(TB) leukemia = system: HL-60(TB) leukemia
IGROV1 ovarian = system: IGROV1 ovarian
COLO 205 colon = system: COLO 205 colon
U251 CNS = system: U251 CNS
DU-145 prostate = system: DU-145 prostate
HCT-15 colon = system: HCT-15 colon
HS 578T breast = system: HS 578T breast
SNB-75 CNS = system: SNB-75 CNS
SK-MEL-2 melanoma = system: SK-MEL-2 melanoma
RPMI-8226 leukemia = system: RPMI-8226 leukemia
NCI-H460 lung = system: NCI-H460 lung
OVCAR-5 ovarian = system: OVCAR-5 ovarian
MDA-MB-231 breast = system: MDA-MB-231 breast
SNB-19 CNS = system: SNB-19 CNS
CCRF-CEM leukemia = system: CCRF-CEM leukemia
T-47D breast = system: T-47D breast
MCF7 breast = system: MCF7 breast
NCI-H522 lung = system: NCI-H522 lung
OVCAR-4 ovarian = system: OVCAR-4 ovarian
K-562 leukemia = system: K-562 leukemia
PC-3 prostate = system: PC-3 prostate
TK-10 renal = system: TK-10 renal
UACC-62 melanoma = system: UACC-62 melanoma
A498 renal = system: A498 renal
LOX IMVI melanoma = system: LOX IMVI melanoma
M14 melanoma = system: M14 melanoma
UO-31 renal = system: UO-31 renal
UACC-257 melanoma = system: UACC-257 melanoma
SF-295 CNS = system: SF-295 CNS
SF-539 CNS = system: SF-539 CNS
EKVX NSCLC = system: EKVX NSCLC
HCC-2998 colon = system: HCC-2998 colon
ACHN renal = system: ACHN renal
OVCAR-3 ovarian = system: OVCAR-3 ovarian
HOP-62 NSCLC = system: HOP-62 NSCLC
786-0 renal = system: 786-0 renal
SK-OV-3 ovarian = system: SK-OV-3 ovarian
SK-MEL-28 melanoma = system: SK-MEL-28 melanoma
HT29 colon = system: HT29 colon
MOLT-4 leukemia = system: MOLT-4 leukemia
CAKI-1 renal = system: CAKI-1 renal
SK-MEL-5 melanoma = system: SK-MEL-5 melanoma
SR leukemia = system: SR leukemia
MALME-3M melanoma = system: MALME-3M melanoma
HOP-92 NSCLC = system: HOP-92 NSCLC

COc1ccccc1/C=C/[N+](=O)[O-]
GI50 (BT-549 breast): 2.09 µM | TGI (BT-549 breast): 4.13 µM | GI50 (HCT-116 colon): 1.51 µM | TGI (HCT-116 colon): 2.9 µM | GI50 (NCI-H226 lung): 3.41 µM | TGI (NCI-H226 lung): 11.7 µM | GI50 (NCI/ADR-RES ovarian): 2.92 µM | TGI (NCI/ADR-RES ovarian): 11.6 µM | GI50 (RXF 393 renal): 1.43 µM | TGI (RXF 393 renal): 2.81 µM | GI50 (MDA-MB-435): 2.59 µM | TGI (MDA-MB-435): 10.5 µM | GI50 (SF-268 CNS): 2.39 µM | TGI (SF-268 CNS): 5.12 µM | GI50 (SN12C renal): 2.47 µM | TGI (SN12C renal): 8.03 µM | GI50 (KM12 colon): 3.02 µM | TGI (KM12 colon): 8.59 µM | GI50 (SW-620 colon): 1.56 µM | TGI (SW-620 colon): 3.19 µM | GI50 (NCI-H23 lung): 1.96 µM | TGI (NCI-H23 lung): 4.6 µM | GI50 (OVCAR-8 ovarian): 3.1 µM | TGI (OVCAR-8 ovarian): 10.4 µM | GI50 (A549 NSCLC): 3 µM | TGI (A549 NSCLC): 10.4 µM | GI50 (HL-60(TB) leukemia): 1.92 µM | TGI (HL-60(TB) leukemia): 4.49 µM | GI50 (IGROV1 ovarian): 2.54 µM | TGI (IGROV1 ovarian): 8.32 µM | GI50 (COLO 205 colon): 2.12 µM | TGI (COLO 205 colon): 4.52 µM | GI50 (U251 CNS): 2.07 µM | TGI (U251 CNS): 5.72 µM | GI50 (DU-145 prostate): 1.95 µM | TGI (DU-145 prostate): 3.63 µM | GI50 (HCT-15 colon): 2.32 µM | TGI (HCT-15 colon): 6.98 µM | GI50 (HS 578T breast): 2.79 µM | TGI (HS 578T breast): 8.83 µM | GI50 (SNB-75 CNS): 3.57 µM | TGI (SNB-75 CNS): 44.5 µM | GI50 (SK-MEL-2 melanoma): 5.4 µM | TGI (SK-MEL-2 melanoma): 17.2 µM | GI50 (RPMI-8226 leukemia): 1.05 µM | TGI (RPMI-8226 leukemia): 3.78 µM | GI50 (NCI-H460 lung): 2.03 µM | TGI (NCI-H460 lung): 4.35 µM | GI50 (OVCAR-5 ovarian): 3.55 µM | TGI (OVCAR-5 ovarian): 14.1 µM | GI50 (MDA-MB-231 breast): 2.06 µM | TGI (MDA-MB-231 breast): 6.93 µM | GI50 (SNB-19 CNS): 4.85 µM | TGI (SNB-19 CNS): 19 µM | GI50 (CCRF-CEM leukemia): 2.16 µM | TGI (CCRF-CEM leukemia): 6.47 µM | GI50 (T-47D breast): 3.17 µM | TGI (T-47D breast): 16.9 µM | GI50 (MCF7 breast): 2.43 µM | TGI (MCF7 breast): 7.99 µM | GI50 (NCI-H522 lung): 1.08 µM | TGI (NCI-H522 lung): 2.47 µM | GI50 (OVCAR-4 ovarian): 3.56 µM | TGI (OVCAR-4 ovarian): 37.7 µM | GI50 (K-562 leukemia): 1.56 µM | TGI (K-562 leukemia): 7.37 µM | GI50 (PC-3 prostate): 2.41 µM | TGI (PC-3 prostate): 6.93 µM | GI50 (TK-10 renal): 2.81 µM | TGI (TK-10 renal): 6.31 µM | GI50 (UACC-62 melanoma): 1.95 µM | TGI (UACC-62 melanoma): 4.13 µM | GI50 (A498 renal): 1.93 µM | TGI (A498 renal): 5.03 µM | GI50 (LOX IMVI melanoma): 1.4 µM | TGI (LOX IMVI melanoma): 2.86 µM | GI50 (M14 melanoma): 1.89 µM | TGI (M14 melanoma): 3.94 µM | GI50 (UO-31 renal): 1.45 µM | TGI (UO-31 renal): 2.8 µM | GI50 (UACC-257 melanoma): 1.84 µM | TGI (UACC-257 melanoma): 4.32 µM | GI50 (SF-295 CNS): 4.67 µM | TGI (SF-295 CNS): 20.5 µM | GI50 (SF-539 CNS): 2.16 µM | TGI (SF-539 CNS): 4.32 µM | GI50 (EKVX NSCLC): 15.3 µM | TGI (EKVX NSCLC): 58.3 µM | GI50 (HCC-2998 colon): 1.76 µM | TGI (HCC-2998 colon): 3.24 µM | GI50 (ACHN renal): 2.01 µM | TGI (ACHN renal): 3.84 µM | GI50 (OVCAR-3 ovarian): 2.23 µM | TGI (OVCAR-3 ovarian): 4.67 µM | GI50 (HOP-62 NSCLC): 2.57 µM | TGI (HOP-62 NSCLC): 7.12 µM | GI50 (786-0 renal): 1.82 µM | TGI (786-0 renal): 3.35 µM | GI50 (SK-OV-3 ovarian): 5.81 µM | TGI (SK-OV-3 ovarian): 17.7 µM | GI50 (SK-MEL-28 melanoma): 1.62 µM | TGI (SK-MEL-28 melanoma): 3.66 µM | GI50 (HT29 colon): 2.01 µM | TGI (HT29 colon): 3.85 µM | GI50 (MOLT-4 leukemia): 2.54 µM | TGI (MOLT-4 leukemia): 6.45 µM | GI50 (CAKI-1 renal): 2.95 µM | TGI (CAKI-1 renal): 46.6 µM | GI50 (SK-MEL-5 melanoma): 2 µM | TGI (SK-MEL-5 melanoma): 4.03 µM | GI50 (SR leukemia): 0.886 µM | TGI (SR leukemia): 5.02 µM | GI50 (MALME-3M melanoma): 2.82 µM | TGI (MALME-3M melanoma): 9.11 µM

O=C(CSCC(=O)N/N=C/c1cccs1)N/N=C/c1cccs1
TGI (BT-549 breast): > 100 µM | TGI (HCT-116 colon): > 100 µM | TGI (NCI-H226 lung): > 100 µM | TGI (NCI/ADR-RES ovarian): > 100 µM | TGI (RXF 393 renal): > 100 µM | TGI (MDA-MB-435): > 100 µM | TGI (SF-268 CNS): > 100 µM | TGI (SN12C renal): > 100 µM | TGI (KM12 colon): > 100 µM | TGI (SW-620 colon): > 100 µM | TGI (HOP-92 NSCLC): > 100 µM | TGI (NCI-H23 lung): > 100 µM | TGI (OVCAR-8 ovarian): > 100 µM | TGI (A549 NSCLC): > 100 µM | TGI (HL-60(TB) leukemia): > 100 µM | TGI (IGROV1 ovarian): > 100 µM | TGI (U251 CNS): > 100 µM | TGI (DU-145 prostate): > 100 µM | TGI (HCT-15 colon): > 100 µM | TGI (HS 578T breast): > 100 µM | TGI (SNB-75 CNS): > 100 µM | TGI (SK-MEL-2 melanoma): > 100 µM | TGI (RPMI-8226 leukemia): > 100 µM | TGI (NCI-H460 lung): > 100 µM | TGI (OVCAR-5 ovarian): > 100 µM | TGI (MDA-MB-231 breast): > 100 µM | TGI (SNB-19 CNS): > 100 µM | TGI (CCRF-CEM leukemia): > 100 µM | TGI (T-47D breast): > 100 µM | TGI (MCF7 breast): > 100 µM | TGI (NCI-H522 lung): > 100 µM | TGI (OVCAR-4 ovarian): > 100 µM | TGI (K-562 leukemia): > 100 µM | TGI (PC-3 prostate): > 100 µM | TGI (TK-10 renal): > 100 µM | TGI (UACC-62 melanoma): > 100 µM | TGI (A498 renal): > 100 µM | TGI (LOX IMVI melanoma): > 100 µM | TGI (M14 melanoma): > 100 µM | TGI (UO-31 renal): > 100 µM | TGI (UACC-257 melanoma): > 100 µM | TGI (SF-295 CNS): > 100 µM | TGI (SF-539 CNS): > 100 µM | TGI (EKVX NSCLC): > 100 µM | TGI (HCC-2998 colon): > 100 µM | TGI (ACHN renal): > 100 µM | TGI (OVCAR-3 ovarian): > 100 µM | TGI (HOP-62 NSCLC): > 100 µM | TGI (786-0 renal): > 100 µM | TGI (SK-OV-3 ovarian): > 100 µM | TGI (SK-MEL-28 melanoma): > 100 µM | TGI (HT29 colon): > 100 µM | TGI (MOLT-4 leukemia): > 100 µM | TGI (CAKI-1 renal): > 100 µM | TGI (SK-MEL-5 melanoma): > 100 µM | TGI (MALME-3M melanoma): > 100 µM
